Values of other authors as cited in patent publication US7892575B2, “Orodispersible pharmaceutical composition for oromucosal or sublingual administration of agomelatine” (Les Laboratoires Servier, priority 2005, dated 2011).

Conditions: humans

COc1ccc2cccc(CCNC(C)=O)c2c1 [agomelatine, N-[2-(7-methoxy-1-naphthyl)ethyl]acetamide]
bioavailability by the oral route in relation to the parenteral route: very low
